In ChEMBL document CHEMBL1806408, “Design-driven LO: the discovery of new ultra long acting dibasic β2-adrenoceptor agonists” (Bioorg Med Chem Lett, 2011):

Tests used:
physchem = details: octanol/phosphate buffer, pH 7.4
D(2) dopamine receptor = D(2) dopamine receptor (Homo sapiens, UniProt P14416)
[1] = target: T1, Beta-1 adrenergic receptor (Homo sapiens, UniProt P08588)
in vivo = details: rat, plasma, iv
[2] = target: Beta-2 adrenergic receptor (Homo sapiens, UniProt P07550)
[3] = target: T1, Beta-1 adrenergic receptor; remark: listed apart in the source
[4] = Selectivity ratio of IC50 for dopamine 2 receptor over EC50 for human adrenergic beta2 receptor
[5] = Selectivity ratio of IC50 for adrenergic beta1 receptor over EC50 for human adrenergic beta2 receptor
[6] = Selectivity ratio of EC50 for human adrenergic beta2 receptor to EC50 for adrenergic beta1 receptor
Cavia porcellus [7] = assay: Bronchodilatory activity in intratracheally dosed guinea pig assessed as inhibition of histamine-induced bronchoconstriction; details: inhaled or nasal
Cavia porcellus [8] = assay: Bronchodilatory activity in intratracheally dosed guinea pig assessed as inhibition of histamine-induced bronchoconstriction after 24 hrs; type: functional
[9] = Oral bioavailability in rat; type: ADME, organism-based; details: in vivo

Sequence of D(2) dopamine receptor (P14416 whole entry): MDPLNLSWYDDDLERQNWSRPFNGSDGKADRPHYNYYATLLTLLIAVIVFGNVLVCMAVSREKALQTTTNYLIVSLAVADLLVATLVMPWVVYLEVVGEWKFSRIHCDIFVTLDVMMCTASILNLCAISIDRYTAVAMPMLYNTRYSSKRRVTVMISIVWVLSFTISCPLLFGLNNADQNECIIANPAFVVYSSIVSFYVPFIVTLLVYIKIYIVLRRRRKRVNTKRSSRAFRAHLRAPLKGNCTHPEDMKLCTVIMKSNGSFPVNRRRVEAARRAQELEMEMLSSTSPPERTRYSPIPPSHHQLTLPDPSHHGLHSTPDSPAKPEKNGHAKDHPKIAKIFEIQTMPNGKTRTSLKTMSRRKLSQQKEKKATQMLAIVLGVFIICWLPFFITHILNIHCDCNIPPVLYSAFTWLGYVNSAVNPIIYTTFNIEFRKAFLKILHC
Sequence of Beta-2 adrenergic receptor (P07550 whole entry): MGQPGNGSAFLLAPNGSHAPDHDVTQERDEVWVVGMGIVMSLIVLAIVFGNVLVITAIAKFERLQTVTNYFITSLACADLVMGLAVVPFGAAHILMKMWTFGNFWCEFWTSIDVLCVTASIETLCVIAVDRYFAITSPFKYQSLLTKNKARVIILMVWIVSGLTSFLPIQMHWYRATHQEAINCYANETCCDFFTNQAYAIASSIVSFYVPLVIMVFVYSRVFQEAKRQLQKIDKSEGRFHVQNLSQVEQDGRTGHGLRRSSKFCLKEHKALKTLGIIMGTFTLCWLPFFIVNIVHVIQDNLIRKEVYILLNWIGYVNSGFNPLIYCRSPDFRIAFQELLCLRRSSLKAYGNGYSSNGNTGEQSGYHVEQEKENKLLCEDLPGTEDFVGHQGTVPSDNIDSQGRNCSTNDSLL
T1 sequence (P08588 whole entry): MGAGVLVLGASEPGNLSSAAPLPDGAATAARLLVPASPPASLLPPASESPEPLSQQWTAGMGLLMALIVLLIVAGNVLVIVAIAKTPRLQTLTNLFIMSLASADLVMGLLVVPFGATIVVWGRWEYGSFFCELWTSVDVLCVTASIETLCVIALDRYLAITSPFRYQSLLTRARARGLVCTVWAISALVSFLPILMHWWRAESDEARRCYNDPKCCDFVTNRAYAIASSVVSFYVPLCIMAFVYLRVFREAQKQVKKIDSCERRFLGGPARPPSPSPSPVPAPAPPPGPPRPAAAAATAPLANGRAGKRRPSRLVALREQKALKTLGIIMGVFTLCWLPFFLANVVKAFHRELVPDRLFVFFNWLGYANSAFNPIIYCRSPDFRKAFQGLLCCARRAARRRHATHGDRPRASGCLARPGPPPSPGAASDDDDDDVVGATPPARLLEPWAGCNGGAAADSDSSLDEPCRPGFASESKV

## O=c1[nH]c2c(O)ccc([C@@H](O)CNCCCOCCOCCc3ccccc3)c2s1
physchem
  logD: 1.1

## O=c1[nH]c2c(O)ccc([C@@H](O)CNCCOCCCNCCc3cccc(Cl)c3)c2s1
physchem
  logD: 0.8

## O=c1[nH]c2c(O)ccc([C@@H](O)CNCCSCCCNCCc3cccc(C(F)(F)F)c3)c2s1
physchem
  logD: 1.2

## O=c1[nH]c2c(O)ccc([C@@H](O)CNCCS(=O)(=O)CCCNCCc3cccc(Cl)c3)c2s1
D(2) dopamine receptor
  IC50: 794 nM

## O=c1[nH]c2c(O)ccc([C@@H](O)CNCCCSCCNCCc3ccccc3Cl)c2s1
[1]
  EC50: 39.8 nM
D(2) dopamine receptor
  IC50: 1000 nM

## O=c1[nH]c2c(O)ccc([C@@H](O)CNCCSCCCNCCc3cccc(Cl)c3Cl)c2s1
In vivo
  half-life: 10.1 h

## O=c1[nH]c2c(O)ccc([C@@H](O)CNCCCSCCNCCc3cccc(Cl)c3Cl)c2s1
[1]
  EC50: 63.1 nM
[2]
  EC50: 1.58 nM
[3]
  IC50: 79.4 nM
[4]
  Ratio IC50/EC50: 562
physchem
  logD: 1.7
[5]
  Ratio IC50/EC50: 45
[6]
  Ratio EC50: 35
D(2) dopamine receptor
  IC50: 1000 nM

## O=c1[nH]c2c(O)ccc([C@@H](O)CNCCSCCCOCCc3ccccc3)c2s1
physchem
  logD: 2.5
D(2) dopamine receptor
  IC50: > 1000 nM

## CN(CCOCCCNC[C@H](O)c1ccc(O)c2[nH]c(=O)sc12)CCc1ccccc1
[1]
  EC50: 200 nM
[2]
  EC50: 2.51 nM
[3]
  IC50: 398 nM
[4]
  Ratio IC50/EC50: 794
[5]
  Ratio IC50/EC50: 150
[6]
  Ratio EC50: 79
D(2) dopamine receptor
  IC50: 2510 nM

## O=c1[nH]c2c(O)ccc([C@@H](O)CNCCCOCCOCCc3cccc4ccccc34)c2s1
physchem
  logD: 2.3

## NC(=O)C(c1ccccc1)(c1ccccc1)[C@@H]1CCN(CCc2ccc3c(c2)CCO3)C1 [DARIFENACIN]
Cavia porcellus [7]
  ED80: 14 µg/kg
In vivo
  half-life: 7.6 h
[4]
  Ratio IC50/EC50: 1860
[5]
  Ratio IC50/EC50: 21
[6]
  Ratio EC50: 2

## CCc1ccc(CCNCCCSCCNC[C@H](O)c2ccc(O)c3[nH]c(=O)sc23)cc1
physchem
  logD: 0.9

## O=c1[nH]c2c(O)ccc([C@@H](O)CNCCCOCCNCCc3cccc(Cl)c3Cl)c2s1
[1]
  EC50: 158 nM
[3]
  IC50: 50.1 nM
[4]
  Ratio IC50/EC50: 2510
physchem
  logD: 0.6
[5]
  Ratio IC50/EC50: 63
[6]
  Ratio EC50: 178
D(2) dopamine receptor
  IC50: 2000 nM

## OCc1cc(C(O)CNCCCCCCOCCCCc2ccccc2)ccc1O (centres undefined) [SALMETEROL]
Cavia porcellus [7]
  ED80: 1 µg/kg
In vivo
  half-life: 2.9 h
physchem
  logD: 1.9

## O=c1[nH]c2c(O)ccc([C@@H](O)CNCC[S+]([O-])CCCNCCc3cccc(Cl)c3)c2s1 (some centres undefined)
[1]
  EC50: 39.8 nM
[2]
  EC50: 5.01 nM
[3]
  IC50: 158 nM
[4]
  Ratio IC50/EC50: > 560
physchem
  logD: 0.2
[5]
  Ratio IC50/EC50: 26
[6]
  Ratio EC50: 8
D(2) dopamine receptor
  IC50: > 3160 nM

## O=c1[nH]c2c(O)ccc([C@@H](O)CNCCCSCCOCCc3cccc4ccccc34)c2s1
In vivo
  half-life: 3.5 h
physchem
  logD: 3.1

## O=c1[nH]c2c(O)ccc([C@@H](O)CNCCCSCCOCCc3ccccc3)c2s1
physchem
  logD: 2.3

## O=c1[nH]c2c(O)ccc([C@@H](O)CNCCCSCCNCCc3cccc(Cl)c3)c2s1
physchem
  logD: 1.1
D(2) dopamine receptor
  IC50: 1580 nM

## O=c1[nH]c2c(O)ccc([C@@H](O)CNCCCSCCCOCCc3ccccc3)c2s1
[1]
  EC50: 3.98 nM
physchem
  logD: > 2.5

## O=c1[nH]c2c(O)ccc([C@@H](O)CNCCCOCCNCCc3cccc(Cl)c3)c2s1
[1]
  EC50: 39.8 nM
[2]
  EC50: 0.2 nM
[3]
  IC50: 63.1 nM
[4]
  Ratio IC50/EC50: > 14100
physchem
  logD: 0
[5]
  Ratio IC50/EC50: 45
[6]
  Ratio EC50: 100
D(2) dopamine receptor
  IC50: > 2510 nM

## O=c1[nH]c2c(O)ccc([C@@H](O)CNCCSCCCNCCc3ccccc3Cl)c2s1
Cavia porcellus [8]
  inhibition (INH): 49%
Cavia porcellus [7]
  ED80: 7 µg/kg
In vivo
  half-life: 15.9 h
[9]
  bioavailability: < 1%
physchem
  logD: 1

## CCOc1ccc(CCNCCCSCCNC[C@H](O)c2ccc(O)c3[nH]c(=O)sc23)cc1
physchem
  logD: 0.4

## O=c1[nH]c2c(O)ccc([C@@H](O)CNCCSCCCNCCc3ccccc3)c2s1
In vivo
  half-life: 10.8 h
physchem
  logD: 0.1

## O=c1[nH]c2c(O)ccc(CCNCCS(=O)(=O)CCCOCCc3ccccc3)c2s1 [SIBENADET]
[2]
  EC50: 0.631 nM
Cavia porcellus [7]
  ED80: 7 µg/kg
[3]
  IC50: > 10000 nM
[4]
  Ratio IC50/EC50: 141
physchem
  logD: 2.6
[5]
  Ratio IC50/EC50: > 14000
D(2) dopamine receptor
  IC50: 100 nM
